Data taken from article PMC8617258, “Plant LHC-like proteins show robust folding and static non-photochemical quenching” (Nature Communications, 2021).
Substitutions are numbered along the chain they refer to.

B1: LIGHT-HARVESTING-LIKE 3 protein LIL3.1 from Arabidopsis, 8xHis-tagged, without the predicted signal sequence (natural protein, UniProt Q9SYX1 40-262, looked up)
chain: ASSDSGSTSPTAAVSVEAPEPVEVIVKEPPQSTPAVKKEETATAKNVAVEGEEMKTTESVVKFQDARWINGTWDLKQFEKDGKTDWDSVIVAEAKRRKWLEENPETTSNDEPVLFDTSIIPWWAWIKRYHLPEAELLNGRAAMIGFFMAYFVDSLTGVGLVDQMGNFFCKTLLFVAVAGVLFIRKNEDVDKLKNLFDETTLYDKQWQAAWKNDDDESLGSKKK
notes: printed mass 25.1 KDa; Cloned into the pPD-NFLAG plasmid by NdeI and BglII with 8xHis added by the forward primer; From the wild type background it carries Chl and zeaxanthin; from ZEP^+ and xant^- it is (almost) colourless; also called LIL3[2]; LIL3 (ZEP^+); source: Synechocystis sp; PCC 6803 (psbAII promoter; wild type, ZEP^+ or xant^- background), purified from DDM-solubilized membranes …

Assays:
ELIP2 = target: T1, ELIP2 (Arabidopsis thaliana, UniProt Q94K66); assay: co-purification (Ni-NTA, sucrose gradient), SEC, HPLC pigment analysis; format: binding; settings: pH 6.5, 0.03% DDM, 15 °C
T1 construct: PCC 6803 GT-P, DDM-solubilized, monomeric
T1 sequence (Q94K66 44-193): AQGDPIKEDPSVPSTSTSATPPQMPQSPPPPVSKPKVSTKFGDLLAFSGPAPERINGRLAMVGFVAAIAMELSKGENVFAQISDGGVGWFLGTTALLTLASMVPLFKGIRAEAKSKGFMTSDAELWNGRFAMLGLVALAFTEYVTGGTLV

LIL3 (LIL3.1) [1] = target: T2, LIL3 (LIL3.1) (Arabidopsis thaliana, UniProt Q9SYX1, N177A); assay: co-purification; pigment colour of the purified protein; format: binding; settings: DDM-solubilized
T2 construct: PCC 6803 GT-P, DDM-solubilized, dimer
T2 sequence (Q9SYX1 40-262 N177A): B1 chain with N138A

LIL3 (LIL3.1) [2] = target: T3, LIL3 (LIL3.1) (Arabidopsis thaliana, UniProt Q9SYX1); assay: co-purification (Ni-NTA, sucrose gradient), CN-PAGE, SEC, HPLC pigment analysis; format: binding; settings: dimer; pH 6.5, 0.03% DDM, 15 °C
T3 construct: PCC 6803 GT-P, DDM-solubilized, dimer
T3 sequence (Q9SYX1 40-262): B1 chain

LIL3 (LIL3.1) [3] = target: T4, LIL3 (LIL3.1) (Arabidopsis thaliana, UniProt Q9SYX1, N177D); assay: co-purification, 2D CN/SDS-PAGE; format: binding; settings: DDM-solubilized
T4 construct: PCC 6803 GT-P, DDM-solubilized, dimer
T4 sequence (Q9SYX1 40-262 N177D): B1 chain with N138D

[4] = target: the molecule itself; assay: native gel or EMSA; 2D clear native/SDS-PAGE (4-14% CN gel, DDM) of LIL3 purified from the wild type background, pigmented; Coomassie stain; mass judged against Synechocystis membrane complexes with a detergent belt assumed

Row | Molecule | co-purification (Ni-NTA, sucrose gradient), SEC, HPLC pigment analysis (ELIP2) | no binding (LIL3 (LIL3.1) [1]) | co-purification (Ni-NTA, sucrose gradient), CN-PAGE, SEC, HPLC pigment analysis (LIL3 (LIL3.1) [2]) | no binding (LIL3 (LIL3.1) [3]) | stoichiometry N [4]
1 | CC1=C(/C=C/C(C)=C/C=C/C(C)=C/C=C/C=C(C)/C=C/C=C(C)/C=C/C2=C(C)CCCC2(C)C)C(C)(C)CCC1 [β-Car] | Pigments co-isolated with ELIP2 consisted of Zea, Chl, and β-Car |  |  |  | 
2 | CC1=C(/C=C/C(C)=C/C=C/C(C)=C/C=C/C=C(C)/C=C/C=C(C)/C=C/C2=C(C)C[C@@H](O)CC2(C)C)C(C)(C)C[C@H](O)C1 [Zea, zeaxanthin] | Pigments co-isolated with ELIP2 consisted of Zea, Chl, and β-Car | (LIL3-N177A and LIL3-N177D) were purified from Synechocystis as completely colourless proteins | Pigments extracted from the LIL3 SEC fraction contained Zea and Chl | showing that the N177D mutation abolishes pigment binding | 
3 | B1 |  |  |  |  | 2
